Where a name gives a salt, the structure may show the parent alone.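 Method: 48-hour compound exposure of cells in 96-well plates, five concentrations, linear interpolation of endpoints. GI50 marks 50% less growth.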 Active and inactive are the calls of the source. Rule as the data show it: active = GI50 up to about 1.1 µM and inactive = higher.
Key:
Experiment in all cases: DTP human tumour cell line panel, 48 h
A498 = test system: A498
HCT-116 = test system: HCT-116
HCT-15 = test system: HCT-15
HOP-92 = test system: HOP-92
HT-29 = test system: HT-29
IGROV-1 = test system: IGROV-1
K562 = test system: K562
MOLT-4 = test system: MOLT-4
OVCAR-3 = test system: OVCAR-3
PC-3 = test system: PC-3
SF-295 = test system: SF-295
SK-MEL-28 = test system: SK-MEL-28
SK-MEL-5 = test system: SK-MEL-5
SN12C = test system: SN12C
SNB-19 = test system: SNB-19
SNB-75 = test system: SNB-75
SW-620 = test system: SW-620
TK-10 = test system: TK-10
UO-31 = test system: UO-31
RPMI-8226 = test system: RPMI-8226

Structure (SMILES) | GI50 (A498) | GI50 (HCT-116) | GI50 (HCT-15) | GI50 (HOP-92) | GI50 (HT-29) | GI50 (IGROV-1) | GI50 (K562) | GI50 (MOLT-4) | GI50 (OVCAR-3) | GI50 (PC-3) | GI50 (SF-295) | GI50 (SK-MEL-28) | GI50 (SK-MEL-5) | GI50 (SN12C) | GI50 (SNB-19) | GI50 (SNB-75) | GI50 (SW-620) | GI50 (TK-10) | GI50 (UO-31) | GI50 (RPMI-8226)
O=C(CCO)OCCCCCC/C=C\CCCCCC/C=C\CCCCCCCCOC(=O)CCO | 23.3 µM (inactive) | 16.3 µM (inactive) | 15.6 µM | 18.2 µM (inactive) | 17.7 µM (inactive) | 17.2 µM (inactive) | 15.8 µM (inactive) | 14.6 µM (inactive) | 23 µM (inactive) | 17.1 µM (inactive) | 18.3 µM (inactive) | 19.5 µM (inactive) | > 100 µM (inactive) | 17.2 µM (inactive) | 18.9 µM (inactive) | 19.8 µM (inactive) | 26.6 µM (inactive) | 17.7 µM (inactive) | 18.6 µM (inactive) | –
O=C(c1ccco1)N(Cc1cccnc1)C(=S)N(Cc1cccnc1)C(=O)c1ccco1 | 25.7 µM (inactive) | 7.67 µM (inactive) | 13 µM | 17.7 µM (inactive) | 17.6 µM (inactive) | – | 4.84 µM (inactive) | 11 µM (inactive) | 6.35 µM (inactive) | 6.19 µM (inactive) | 30.6 µM (inactive) | 20.1 µM (inactive) | 14.6 µM (inactive) | 10.6 µM (inactive) | 30.8 µM (inactive) | 38.8 µM (inactive) | 5 µM (inactive) | 10.8 µM (inactive) | 15 µM (inactive) | –
COC(=O)N1CC[C@@H]2CCC=C(c3cccc4c3OCO4)[C@@H]21 | > 100 µM (inactive) | > 100 µM (inactive) | 93.3 µM | 22 µM (inactive) | 79.6 µM (inactive) | > 100 µM (inactive) | 42.8 µM (inactive) | 26.1 µM (inactive) | > 100 µM (inactive) | 54.2 µM (inactive) | > 100 µM (inactive) | > 100 µM (inactive) | 61.4 µM (inactive) | > 100 µM (inactive) | 74.3 µM (inactive) | 17.7 µM (inactive) | > 100 µM (inactive) | 82.8 µM (inactive) | 40.7 µM (inactive) | –
C=CCN(CCN(CC=C)S(=O)(=O)c1ccc(C)cc1)S(=O)(=O)c1ccc(C)cc1 | > 100 µM (inactive) | > 100 µM (inactive) | > 100 µM | 95.9 µM (inactive) | > 100 µM (inactive) | – | > 100 µM (inactive) | > 100 µM (inactive) | > 100 µM (inactive) | > 100 µM (inactive) | > 100 µM (inactive) | > 100 µM (inactive) | > 100 µM (inactive) | > 100 µM (inactive) | > 100 µM (inactive) | > 100 µM (inactive) | > 100 µM (inactive) | > 100 µM (inactive) | > 100 µM (inactive) | –
C[N+](C)(CCCCCC[N+](C)(C)CCCN1C(=O)c2cccc3cccc(c23)C1=O)CCCN1C(=O)c2cccc3cccc(c23)C1=O | > 100 µM (inactive) | 72.8 µM (inactive) | > 100 µM | > 100 µM (inactive) | > 100 µM (inactive) | > 100 µM (inactive) | > 100 µM (inactive) | > 100 µM (inactive) | 84.9 µM (inactive) | > 100 µM (inactive) | 41.7 µM (inactive) | > 100 µM (inactive) | > 100 µM (inactive) | > 100 µM (inactive) | > 100 µM (inactive) | – | > 100 µM (inactive) | > 100 µM (inactive) | > 100 µM (inactive) | > 100 µM (inactive)
c1ccc([C@H]2CN3CCSC3=N2)cc1 [LEVAMISOLE HYDROCHLORIDE] | > 100 µM (inactive) | > 100 µM (inactive) | > 100 µM | > 100 µM (inactive) | > 100 µM (inactive) | > 100 µM (inactive) | > 100 µM (inactive) | > 100 µM (inactive) | > 100 µM (inactive) | > 100 µM (inactive) | > 100 µM (inactive) | > 100 µM (inactive) | > 100 µM (inactive) | > 100 µM (inactive) | > 100 µM (inactive) | > 100 µM (inactive) | > 100 µM (inactive) | – | > 100 µM (inactive) | –
